{
  "source": "the supplement of paper PMC10307832",
  "test_in_all_cases": "relative viability (nuclei count vs DMSO), 5 days (fraction); higher = more cells survive",
  "key": {"IMD-0354 + Vorinostat": {"compound": "O=C(Nc1cc(C(F)(F)F)cc(C(F)(F)F)c1)c1cc(Cl)ccc1O [IMD-0354] + O=C(CCCCCCC(=O)Nc1ccccc1)NO [Vorinostat] (partner 1 µM)", "how_it_was_run": "(§1)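 Nuclei were stained with Hoechst during a one-step fixation (final 0.05% Triton X-100, 1% formaldehyde, 1 ug/ml Hoechst) carried out 5 days after dosing, then counted on 4× images. The cells, lung cancer lines in 1536-well plates, had been dosed by pin tool the day after seeding with one drug alone or a fixed anchor-drug dose plus five library-drug doses (not always all listed) in √10 steps. Relative viability is the nuclei count in treated wells divided by that in vehicle wells, and each value is the median of duplicate plates.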"}, "IMD-0354 + Trametinib": {"compound": "O=C(Nc1cc(C(F)(F)F)cc(C(F)(F)F)c1)c1cc(Cl)ccc1O [IMD-0354] + CC(=O)Nc1cccc(-n2c(=O)n(C3CC3)c(=O)c3c(Nc4ccc(I)cc4F)n(C)c(=O)c(C)c32)c1 [Trametinib] (partner 0.02 µM)", "how_it_was_run": "as §1"}, "CX-5461 + Lapatinib": {"compound": "Cc1cnc(CNC(=O)c2c(=O)c3ccc(N4CCCN(C)CC4)nc3n3c2sc2ccccc23)cn1 [CX-5461] + CS(=O)(=O)CCNCc1ccc(-c2ccc3ncnc(Nc4ccc(OCc5cccc(F)c5)c(Cl)c4)c3c2)o1 [Lapatinib] (partner 2 µM)", "how_it_was_run": "as §1"}, "CX-5461 + Linsitinib": {"compound": "Cc1cnc(CNC(=O)c2c(=O)c3ccc(N4CCCN(C)CC4)nc3n3c2sc2ccccc23)cn1 [CX-5461] + C[C@]1(O)C[C@@H](c2nc(-c3ccc4ccc(-c5ccccc5)nc4c3)c3c(N)nccn32)C1 [Linsitinib] (partner 1 µM)", "how_it_was_run": "as §1"}},
  "data": [
    {"cell line": "UMC-11", "values": [
      {"measurement": "relative viability", "setting": "IMD-0354 + Vorinostat; first compound 0.04 µM", "value": 0.39},
      {"measurement": "relative viability", "setting": "IMD-0354 + Vorinostat; first compound 0.1265 µM", "value": 0.407},
      {"measurement": "relative viability", "setting": "IMD-0354 + Vorinostat; first compound 0.4 µM", "value": 0.278},
      {"measurement": "relative viability", "setting": "IMD-0354 + Vorinostat; first compound 1.265 µM", "value": 0.189},
      {"measurement": "relative viability", "setting": "IMD-0354 + Vorinostat; first compound 4 µM", "value": 0.239},
      {"measurement": "relative viability", "setting": "IMD-0354 + Trametinib; first compound 0.04 µM", "value": 0.745},
      {"measurement": "relative viability", "setting": "IMD-0354 + Trametinib; first compound 0.1265 µM", "value": 0.808},
      {"measurement": "relative viability", "setting": "IMD-0354 + Trametinib; first compound 0.4 µM", "value": 0.337},
      {"measurement": "relative viability", "setting": "IMD-0354 + Trametinib; first compound 1.265 µM", "value": 0.194},
      {"measurement": "relative viability", "setting": "IMD-0354 + Trametinib; first compound 4 µM", "value": 0.246},
      {"measurement": "relative viability", "setting": "CX-5461 + Lapatinib; first compound 0.01 µM", "value": 1.07},
      {"measurement": "relative viability", "setting": "CX-5461 + Lapatinib; first compound 0.03162 µM", "value": 1.01},
      {"measurement": "relative viability", "setting": "CX-5461 + Lapatinib; first compound 0.1 µM", "value": 0.855},
      {"measurement": "relative viability", "setting": "CX-5461 + Lapatinib; first compound 0.3162 µM", "value": 0.454},
      {"measurement": "relative viability", "setting": "CX-5461 + Lapatinib; first compound 1 µM", "value": 0.269},
      {"measurement": "relative viability", "setting": "CX-5461 + Linsitinib; first compound 0.01 µM", "value": 0.907},
      {"measurement": "relative viability", "setting": "CX-5461 + Linsitinib; first compound 0.03162 µM", "value": 1.07},
      {"measurement": "relative viability", "setting": "CX-5461 + Linsitinib; first compound 0.1 µM", "value": 1.02},
      {"measurement": "relative viability", "setting": "CX-5461 + Linsitinib; first compound 0.3162 µM", "value": 0.92},
      {"measurement": "relative viability", "setting": "CX-5461 + Linsitinib; first compound 1 µM", "value": 0.807}
    ]}
  ]
}
